biological target: T1, human S1P1 (Homo sapiens, UniProt P21453); assay: 35S-GTPγS binding assay using a membrane prepared from CHO cells which stably express S1P1 receptor; assay type: biochemical; conditions: CHO cell membrane fraction stably expressing human S1P1, read-out: EC50 (concentration of agonist required to give 50% of its own maximum increase ratio), human S1P1
T1 construct: expressed in transfected cells
Procedure: ^35S-GTPγS Binding Assay Using a Membrane Prepared from CHO Cells Which Stably Express S1P1 Receptor
Functional activation of human S1P1 by the compounds was determined based on quantification of ^35S-GTPγS binding to G protein due to the receptor activation, by using a cell membrane fraction prepared from CHO cells in which human S1P1 are stably expressed. As for human S1P1, the above described human S1P1 was used. Membrane proteins as prepared and various concentrations of sphingosine-1-phosphate or the compounds diluted in a solvent such as DMSO were incubated in a solution comprising 20 mM Tris-Cl (pH 7.5), 100 mM NaCl, 10 mM MgCl2, […] (Upstate), 0.1% BSA (fatty acid free, Sigma) and 25 pM ^35S-GTPγS (specific activity 1250 Ci/mmol) in 96 well microtiter plates. Binding was performed by incubating them for 90 minutes at room temperature, and then terminated by harvesting the membrane proteins onto multiscreeen harvest FB plates (Millipore) using Millipore multiscreen separation system. After drying the harvest plates at least for 12 hours, 25 μl of MicroScint-O (Perkin Elmer) was added to each well and radioactivity was measured using a Top Counter.
Having the value measured for the well to which a solvent has been added as a control value, the agonist activity of the compounds was determined by comparing the increase in the well to which a test compound has been added to the control value, and therefore an increase ratio for each concentration of the compounds was obtained. EC50 values were culcurated as defined to be the concentration of agonist required to give 50% of its own maximum increase ratio.

T1 sequence (P21453 whole entry): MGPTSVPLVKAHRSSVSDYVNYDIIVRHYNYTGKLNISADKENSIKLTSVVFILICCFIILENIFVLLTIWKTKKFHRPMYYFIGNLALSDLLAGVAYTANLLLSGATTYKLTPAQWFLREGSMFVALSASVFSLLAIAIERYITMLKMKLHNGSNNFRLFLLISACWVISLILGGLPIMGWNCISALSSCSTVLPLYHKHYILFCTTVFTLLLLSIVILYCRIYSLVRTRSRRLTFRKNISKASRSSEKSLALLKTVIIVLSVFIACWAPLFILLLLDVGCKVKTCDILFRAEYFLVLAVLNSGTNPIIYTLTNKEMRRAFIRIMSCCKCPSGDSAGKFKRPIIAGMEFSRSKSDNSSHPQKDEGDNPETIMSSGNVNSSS

Row | Structure (SMILES) | EC50 [nM]
1 | Cc1cc(-c2nc(-c3ccc4c(c3)CN([C@H]3C[C@@H](C(=O)O)C3)C4)no2)c(F)cc1-c1cc(F)cc(F)c1F [Example 106] | < 10
2 | Cc1cc(-c2nc(-c3ccc4c(c3)CN([C@H]3C[C@H](C(=O)O)C3)C4)no2)ccc1-c1cccc(F)c1F [Example 90] | < 10
3 | Cc1cc(-c2nc(-c3ccc4c(c3)CCC4N[C@H]3C[C@H](C(=O)O)C3)no2)ccc1-c1cccc(I)c1C(F)(F)F (stereo partly shown) [Example 52] | < 10
4 | O=C(O)[C@H]1C[C@H](NC2CCc3cc(-c4noc(-c5ccc(-c6ccccc6F)c(F)c5)n4)ccc32)C1 (stereo partly shown) [Example 61] | < 10
5 | Cc1cc(-c2nc(-c3ccc4c(c3)CCC4N[C@H]3C[C@H](C(=O)O)C3)no2)c(F)cc1-c1cccc(F)c1C(F)(F)F (stereo partly shown) [Example 40] | < 10
6 | Cc1cc(-c2nc(-c3cc(C)c4c(c3)CN([C@H]3C[C@H](C(=O)O)C3)C4)no2)ccc1-c1ccccc1C(F)(F)F [Example 54] | < 10
7 | N#Cc1ccccc1-c1ccc(-c2nc(-c3ccc4c(c3)CCC4N[C@H]3C[C@H](C(=O)O)C3)no2)cc1Cl (stereo partly shown) [Example 63] | < 10
8 | Cc1cc(-c2nc(-c3ccc4c(c3)CCC4N[C@H]3C[C@H](C(=O)O)C3)no2)c(F)cc1-c1ccccc1F (stereo partly shown) [Example 26] | < 10
9 | Cc1cc(-c2nc(-c3ccc4c(c3)CN([C@H]3C[C@H](C(=O)O)C3)C4)no2)ccc1-c1cc(F)cc(F)c1F [Example 100] | < 10
10 | Cc1cc(-c2nc(-c3ccc4c(c3)CCC4N[C@H]3C[C@H](C(=O)O)C3)no2)ccc1-c1cccc(Cl)c1C(F)(F)F (stereo partly shown) [Example 50] | < 10
11 | Cc1cc(-c2nc(-c3ccc4c(c3)CCC4N[C@H]3C[C@H](C(=O)O)C3)no2)ccc1-c1ccoc1 (stereo partly shown) [Example 14] | < 10
12 | O=C(O)[C@H]1C[C@H](NC2CCc3cc(-c4noc(-c5ccc(-c6ccccc6)c(F)c5)n4)ccc32)C1 (stereo partly shown) [Example 60] | < 10
13 | Cc1cc(-c2nc(-c3ccc4c(c3)CN([C@H]3C[C@H](C(=O)O)C3)C4)no2)ccc1-c1ccsc1 [Example 78] | < 10
14 | Cc1cc(-c2nc(-c3ccc4c(c3)CCC4N[C@H]3C[C@H](C(=O)O)C3)no2)ccc1-c1ccccc1F (stereo partly shown) [Example 20] | < 10

test system: rat having arthritis caused by an adjuvant; assay: Animal model having arthritis caused by an adjuvant; assay type: in vivo; conditions: female Lewis rat, oral once a day, twenty-one days after the administration
Procedure: Animal Model Having Arthritis Caused by an Adjuvant
Seven-week old female Lewis rat is used for the evaluation. After measuring the volume of the hind leg of the rat, M. tuberculosis H37 RA (manufactured by Difco, 500 μg/100 μl) which has been suspended in fluid paraffin as an adjuvant, is subcutaneously injected in the sole of rear left foot of the rat to prepare a rat having arthritis caused by an adjuvant. The compounds to be tested are suspended in 1% methyl cellulose solution, and force the animal to be orally administered with the suspension into the stomach by using a sonde, once a day for twenty-one days from the start of the adjuvant injection. Evaluation of arthritis is carried out by measuring volume of the foot of each animal by using a plethysmometer (manufactured by UGO BASILE). By comparing the value for the group administered with the compounds of the present invention with the solvent administered group, effect of the compounds is determined. Specifically, the swelling of the sole of the rear left foot of the solvent administered group is taken as 100%, and in view of the swelling of the animals of the compound administered group, control % values are calculated. […]

Row | Structure (SMILES) | ED50 (dosage required to reduce the swelling of sole of the rear left foot by 50%)
15 | Cc1cc(-c2nc(-c3ccc4c(c3)CCC4N[C@H]3C[C@H](C(=O)O)C3)no2)ccc1-c1ccccc1.Cl (stereo partly drawn) [Example 1, 1,3-Trans-3-(5-(5-(2-methylbiphenyl-4-yl)-1,2,4-oxadiazol-3-yl)-2,3-dihydro-1H-inden-1-ylamino)cyclobutanecarboxylic acid hydrochloride salt] | less than 1 mg/kg

test system: not given; assay: not given; conditions: rats, intravenous administration, Non-Patent Document 2; cited from earlier work

Row | Structure (SMILES) | effect on heart rate
16 | CCCCCCCCCCCCC/C=C/[C@@H](O)[C@@H](N)COP(=O)(O)O [sphingosine 1-phosphate] | decreases the heart rate

test system: peripheral lymphocytes; assay: Evaluation of peripheral blood lymphocyte reduction; assay type: in vivo; conditions: po, 6 h, rat, orally administered, six hours after the administration, read-out: ED50 (dosage required to reduce number of lymphocytes by 50%)
Procedure: Evaluation of Peripheral Blood Lymphocyte Reduction
The compound or a solvent is orally administered to a rat. 3, 6, 24, 48 or 72 hours after the administration of the compounds, blood is drawn from the rat tail. Hematological testis carried out for the whole blood sample. Using an automated analyzer (Sysmex 2000Xi), total number of peripheral lymphocytes is obtained. By having at least three animals per group, activity of the compound on the total number of peripheral lymphocytes was evaluated. Lymphocyte reduction caused by the compound administration was evaluated via comparison with an animal group which had received the solvent only. Specifically, average number of the lymphocytes for the solvent administered group was taken as 100%, and from average number of the lymphocytes for the compound administered group, control % value was calculated. Further, in view of the dosage of the compound and the dosage of the compound that is required to reduce number of lymphocytes by 50% six hours after the administration compared to the control % value was calculated as ED50.

Row | Structure (SMILES) | ED50 [mg/kg]
17 | Cc1cc(-c2nc(-c3ccc4c(c3)CCC4NC3CC(C(=O)O)C3)no2)ccc1-c1cc(F)ccc1F.Cl (stereo not shown) [Example 29] | < 1
18 | Cc1cc(-c2nc(-c3ccc4c(c3)CCC4NC3CC(C(=O)O)C3)no2)c(F)cc1-c1cccc(C(F)(F)F)c1C(F)(F)F.Cl (stereo not shown) [Example 48] | < 1
19 | Cc1cc(-c2nc(-c3ccc4c(c3)CCC4NC3CC(C(=O)O)C3)no2)c(F)cc1-c1cccc(F)c1F.Cl (stereo not shown) [Example 32] | < 1
20 | Cc1cc(-c2nc(-c3ccc4c(c3)CCC4NC3CC(C(=O)O)C3)no2)ccc1-c1cccc(F)c1.Cl (stereo not shown) [Example 4] | < 1
21 | Cc1cc(-c2nc(-c3ccc4c(c3)CCC4NC3CC(C(=O)O)C3)no2)ccc1-c1cccc(F)c1F.Cl (stereo not shown) [Example 28] | < 1

test system: not given; assay: not given; conditions: reported in Non-Patent Document 1; cited from earlier work

Row | Structure (SMILES) | side effect after administration
22 | CCCCCCCCc1ccc(CCC(N)(CO)CO)cc1 [FTY720] | bradycardia is found after administration

— patent publication US20090298894A1, “AMINO ACID COMPOUNDS” (Asahi Kasei Pharma Corporation, priority 2008, published 2009)
